Test results as given in EP0100527A1, “4H-1,4-benzothiazines for use as medicaments” (BAYER AG, priority 1982, dated 1984).

What follows are compounds tested against T1, Lipoxygenase in Kaninchen-PMN-Leukozyten (Oryctolagus cuniculus, UniProt G1SNX0) (assay: Inhibition of lipoxygenase (release of 5-HETE and leukotriene B4) in rabbit PMN leukocytes).
T1 construct: Die polymorphkernigen Leukozyten des Menschen und des Kaninchens metabolisieren die Arachidonsäure; endogenous in cells; host or cells: rabbit polymorphonuclear (PMN) leukocytes
T1 sequence (G1SNX0 1-674): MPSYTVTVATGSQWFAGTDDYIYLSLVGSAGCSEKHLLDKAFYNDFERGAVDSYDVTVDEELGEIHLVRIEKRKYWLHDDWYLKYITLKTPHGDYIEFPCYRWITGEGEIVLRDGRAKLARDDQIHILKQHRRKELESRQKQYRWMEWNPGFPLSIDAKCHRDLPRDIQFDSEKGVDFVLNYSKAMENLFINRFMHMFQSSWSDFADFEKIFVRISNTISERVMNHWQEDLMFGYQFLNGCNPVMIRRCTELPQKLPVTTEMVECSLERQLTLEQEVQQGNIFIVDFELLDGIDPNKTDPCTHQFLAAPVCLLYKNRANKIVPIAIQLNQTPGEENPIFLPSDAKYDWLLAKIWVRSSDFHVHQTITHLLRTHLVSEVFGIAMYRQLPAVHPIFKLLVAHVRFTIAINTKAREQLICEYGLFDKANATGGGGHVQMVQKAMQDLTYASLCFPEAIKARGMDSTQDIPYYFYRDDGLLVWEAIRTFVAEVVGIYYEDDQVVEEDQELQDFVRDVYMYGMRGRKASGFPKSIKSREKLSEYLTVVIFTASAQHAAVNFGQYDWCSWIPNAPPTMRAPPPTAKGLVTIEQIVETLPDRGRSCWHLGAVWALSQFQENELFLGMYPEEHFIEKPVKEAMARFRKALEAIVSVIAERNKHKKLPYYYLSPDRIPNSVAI
Format: cell-based
Excerpt: Analog den vorstehenden Ausführungen lassen sich die lipoxygenasehemmenden Eigenschaften der erfindungsgemäßen Verbindungen auch an Leukozyten nachweisen.
Die polymorphkernigen Leukozyten des Menschen und des Kaninchens metabolisieren die Arachidonsäure zu 5-Hydroxy-5,8,11,14-eikosatetraensäure (5-HETE) und Leukotrien B4 (5S, 12R-Dihydroxy-6 cis, 8,10-trans-14 ciseikosatetraensäure). Die Hemmung der Freisetzung von 5-HETE und Leukotrien B4 aus den Leukozyten stellt ein Maß für den lipoxygenasehemmenden Effekt der erfindungsgemäßen Verbindungen dar. (Vergl. Tab. 1) Der Test mit den Humanleukozyten wurde nach Borgeat und Samuelsson (j. Biol. Chem. 254; 2643, 1979 und Proc. Natl. Acad. Sci. USA, 76, 2148 1979), mit Kaninchenleukozyten nach Walker und .Parish (Inter. Archs. Allergy appl. Immun. 66, 83, 1981) durchgeführt.

Row | Minimale Konzentration für die Hemmung der Lipoxygenase in Kaninchen-PMN-Leukozyten | SMILES
1 | 5x10^-7 - 10^-6 g/ml | CC1=C(C(=O)OCCC#N)Sc2ccccc2N1 [Beispiel 1, 3-Methyl-4H-1,4-benzothiazin-2-carbonsäure-(2-cyanethyl)-ester]
2 | 5x10^-7 - 10^-6 g/ml | COC(=O)C1=C(C)Nc2ccccc2S1 [Beispiel 2]
3 | 5x10^-7 - 10^-6 g/ml | CCOC(=O)C1=C(CC)Nc2ccccc2S1 [Beispiel 4]
4 | 5x10^-7 - 10^-6 g/ml | CC1=C(C(=O)OC2CCCCC2)Sc2ccccc2N1 [Beispiel 5]
5 | 5x10^-7 - 10^-6 g/ml | CSCCOC(=O)C1=C(C)Nc2ccccc2S1 [Beispiel 8]
6 | 10^-6 g/ml | CCCCOC(=O)C1=C(C)Nc2ccccc2S1 [Beispiel 9]
7 | 10^-6 g/ml | CC(=O)C1=C(C)Nc2ccccc2S1 [Beispiel 11]
8 | 10^-6 g/ml | CC1=C(C(=O)OCCc2ccccc2)Sc2ccccc2N1 [Beispiel 12]
9 | 5x10^-7 - 10^-6 g/ml | CC1=C(C(=O)OCc2ccccc2)Sc2ccccc2N1 [Beispiel 13]
10 | 10^-6 g/ml | COc1ccc2c(c1)SC(C(=O)OCCC#N)=C(C)N2 [Beispiel 28]
11 | 10^-6 g/ml | CSCCOC(=O)C1=C(C)Nc2ccc(C)cc2S1 [Beispiel 29]
12 | 10^-6 g/ml | CCOC(=O)C1=CNc2ccc(OC)cc2S1 [Beispiel 32]
13 | 5e-06 g/mL | CCN1C=C(C(=O)O)Sc2cc([N+](=O)[O-])ccc21 [Beispiel 37]
14 | 5e-06 g/mL | CCN1C=C(C(=O)OC)Sc2cc([N+](=O)[O-])ccc21 [Beispiel 40]
